Assay results from PubChem BioAssay AID1963829 (Molecular Pharmacology Branch, DTP, NCI, 2024).

System: 935938-334-R-J1-PDC complex spheroid viability
Assay: Anticancer human tumor 935938-334-R-J1-PDC patient-derived small intestine adenocarcinoma cell line growth inhibition [POLQ]
Conditions: for IC50: curve of first compound; for viability, T/C: stronger effect = lower value
Procedure: Multicellular complex tumor spheroid response to Polymerase (POL) inhibitors (novobiocin, ART-558, RP6685) in combination with a variety of drugs and investigational agents in selected tumor cell lines
The POL inhibitors (novobiocin, ART-558, and RP6685) were evaluated both individually and in combination with standard of care and investigational anticancer small molecules within a complex spheroid model of solid tumors. . Complex spheroids include a stromal component modeled by human endothelial cells (HUVEC) and fibroblasts modeled by human mesenchymal stem cells (MSCs). The concentration ranges selected for each drug and investigational agent were based upon clinically achievable concentrations if the clinical Cmax of the agent was known.
Compounds. The drugs and investigational agents: novobiocin (NSC847541), ART-558 (NSC835418), RP-6685 (NSC848927), peposertib (NSC802822), ceralasertib (NSC780249), elimusertib (NSC800525), camonsertib (NSC841442), AZD-1390 (NSC803789), olaparib (NSC753686), talazoparib (NSC767125), rucaparib (NSC756644), sotorasib (NSC818433), MRTX-1133 (NSC836407), SN-38 (NSC673596), topotecan (NSC609699), epotoside (NSC141540), doxorubicin (NSC123127), gemcitabine (NSC613327), 5-fluorouracil (NSC19893), paclitaxel (NSC125973), vemurafenib (NSC761431), MSA-2 (NSC828583), SN-011 (NSC837082), adavosertib (NSC754352), prexasertib (NSC758257), carboplatin (NSC241240) and oxaliplatin (NSC266046), were obtained from the National Cancer Institute (NCI) Developmental Therapeutics Program Chemical Repository (21). The FDA-approved anticancer drug set is available from the Developmental Therapeutics Program at https://dtp.cancer.gov/organization/dscb/obtaining/. […] The stock solutions were prepared in dimethyl sulfoxide (DMSO, Sigma-Aldrich, St. Louis, MO, cat. D2650), except for the platinum compounds which were prepared in saline (Quality Biological, Gaithersburg, MD, cat. 114-055-101), at 800-fold the tested concentration and stored at -70 degrees C prior to their use. All drugs and investigational agents were tested over a range starting from a high concentration at or near the clinical Cmax and decreasing in half-log increments. If the clinical Cmax for an agent had not been determined, the highest concentration tested was 10 microM, except for SN-38, which was tested at a high concentration of 1 microM.
Cell Culture. All cells were maintained in an incubator at 37 degrees C and 5% CO2 with 95% humidity. The PDC lines were cultured according to standard operating procedures established by the NCI PDMR (https://pdmr.cancer.gov). Table 3 of the manuscript, lists the cell lines along with the number of the three cell types plated to form the mct-spheroids and media for tumor cell growth. After thawing, all PDC lines, except 997537-175-T-J1-PDC and 415267-285-R-J2-PDC, were cultured in Matrigel-coated flasks prepared with a working solution of 1X Ham's F-12 nutrient mix, without supplementation (Thermo Fisher Scientific, cat. 11765054), 100 U/mL penicillin-streptomycin (Thermo Fisher Scientific, cat. 15140122), and 2.5% Matrigel (Corning Inc., Corning, NY, cat. 354248) for the first three passages. The two PDC lines 997537-175-T-J1-PDC and 415267-285-R-J2-PDC were cultured on uncoated flasks. The 857933-349-R-J2-PDC line was cultured in 6C/Colon 1B media containing advanced DMEM/F-12 (Thermo Fisher Scientific, cat. 12634028), 10 mM HEPES (Thermo Fisher Scientific, cat. 15630080), 1X GlutaMAX supplement (Thermo Fisher Scientific, cat. 35050061), 0.1 mg/mL primocin (InvivoGen, San Diego, CA, cat. ant-pm-2), 10% defined fetal bovine serum, heat inactivated (HyClone Laboratories Inc., Logan, UT, cat. SH30070.03HI), 50% L-WRN conditioned media (ATCC, cat. CRL-3276), 1.25 mM N-Acetyl-L-cysteine (Sigma-Aldrich, cat. A9165), 10 mM nicotinamide (Sigma-Aldrich, cat. N0636), 1X B-27 supplement (Thermo Fisher Scientific, cat. 17504044), 1X N-2 supplement (Thermo Fisher Scientific, cat. […]

[1] = second compound 0.0316 µM, first compound 0.0316 µM
[2] = second compound 0.0316 µM, first compound 0.1 µM
[3] = second compound 0.0316 µM, first compound 0.316 µM
[4] = second compound 0.0316 µM, first compound 1 µM
[5] = second compound 0.0316 µM, first compound 3.16 µM
[6] = second compound 0.0316 µM, first compound 10 µM
[7] = second compound 0.1 µM, first compound 0.0316 µM
[8] = second compound 0.1 µM, first compound 0.1 µM
[9] = second compound 0.1 µM, first compound 0.316 µM
[10] = second compound 0.1 µM, first compound 1 µM
[11] = second compound 0.1 µM, first compound 3.16 µM
[12] = second compound 0.1 µM, first compound 10 µM
[13] = second compound 0.316 µM, first compound 0.0316 µM
[14] = second compound 0.316 µM, first compound 0.1 µM
[15] = second compound 0.316 µM, first compound 0.316 µM
[16] = second compound 0.316 µM, first compound 1 µM
[17] = second compound 0.316 µM, first compound 3.16 µM
[18] = second compound 0.316 µM, first compound 10 µM
[19] = second compound 1 µM, first compound 0.0316 µM
[20] = second compound 1 µM, first compound 0.1 µM
[21] = second compound 1 µM, first compound 0.316 µM
[22] = second compound 1 µM, first compound 1 µM
[23] = second compound 1 µM, first compound 3.16 µM
[24] = second compound 1 µM, first compound 10 µM
[25] = second compound 3.16 µM, first compound 0.0316 µM
[26] = second compound 3.16 µM, first compound 0.1 µM
[27] = second compound 3.16 µM, first compound 0.316 µM
[28] = second compound 3.16 µM, first compound 1 µM
[29] = second compound 3.16 µM, first compound 3.16 µM
[30] = second compound 3.16 µM, first compound 10 µM
[31] = second compound 10 µM, first compound 0.0316 µM
[32] = second compound 10 µM, first compound 0.1 µM
[33] = second compound 10 µM, first compound 0.316 µM
[34] = second compound 10 µM, first compound 1 µM
[35] = second compound 10 µM, first compound 3.16 µM
[36] = second compound 10 µM, first compound 10 µM
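Also: spheroids exposed to drugs for seven days before viability read.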
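For viability, T/C in this document: 100% = DMSO vehicle control wells.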

SMILES: CC(C)n1c(=O)n(C)c2cnc3cc(F)c(-c4ccc(OCCCN5CCCCC5)nc4)cc3c21 + Cc1cccc(N(C)C(=O)C2C(O)CCN2c2nc(C)cc(C(F)(F)F)c2C#N)c1
- IC50 (second compound 0.0316 µM): > 10 µM
- IC50 (second compound 0.1 µM): > 10 µM
- IC50 (second compound 0.316 µM): > 10 µM
- IC50 (second compound 1 µM): > 10 µM
- IC50 (second compound 3.16 µM): > 10 µM
- IC50 (second compound 10 µM): > 10 µM
- viability, T/C [1]: 86.8%
- viability, T/C [2]: 98.4%
- viability, T/C [3]: 77.5%
- viability, T/C [4]: 112%
- viability, T/C [5]: 111%
- viability, T/C [6]: 125%
- viability, T/C [7]: 85.9%
- viability, T/C [8]: 84.7%
- viability, T/C [9]: 82.8%
- viability, T/C [10]: 82%
- viability, T/C [11]: 110%
- viability, T/C [12]: 88.3%
- viability, T/C [13]: 97.5%
- viability, T/C [14]: 94.9%
- viability, T/C [15]: 100%
- viability, T/C [16]: 97%
- viability, T/C [17]: 94.2%
- viability, T/C [18]: 97.3%
- viability, T/C [19]: 88%
- viability, T/C [20]: 103%
- viability, T/C [21]: 89.1%
- viability, T/C [22]: 93.5%
- viability, T/C [23]: 105%
- viability, T/C [24]: 98.7%
- viability, T/C [25]: 93.4%
- viability, T/C [26]: 93.7%
- viability, T/C [27]: 100%
- viability, T/C [28]: 98.1%
- viability, T/C [29]: 112%
- viability, T/C [30]: 89.5%
- viability, T/C [31]: 105%
- viability, T/C [32]: 80.6%
- viability, T/C [33]: 90.5%
- viability, T/C [34]: 84.6%
- viability, T/C [35]: 76.9%
- viability, T/C [36]: 80.1%

SMILES: CC1COCCN1c1cc(C2(O)CC3CCC(C2)O3)c2cnn(-c3ccn[nH]3)c2n1 (centres undefined) + Cc1cccc(N(C)C(=O)C2C(O)CCN2c2nc(C)cc(C(F)(F)F)c2C#N)c1
- IC50 (second compound 0.0316 µM): 0.372 µM
- IC50 (second compound 0.1 µM): 0.262 µM
- IC50 (second compound 0.316 µM): 0.331 µM
- IC50 (second compound 1 µM): 0.215 µM
- IC50 (second compound 3.16 µM): 0.198 µM
- IC50 (second compound 10 µM): 0.155 µM
- viability, T/C [1]: 84%
- viability, T/C [2]: 76.2%
- viability, T/C [3]: 52.9%
- viability, T/C [4]: 29.1%
- viability, T/C [5]: 18.7%
- viability, T/C [6]: 13.8%
- viability, T/C [7]: 101%
- viability, T/C [8]: 90.3%
- viability, T/C [9]: 40.1%
- viability, T/C [10]: 25.8%
- viability, T/C [11]: 17.7%
- viability, T/C [12]: 9.91%
- viability, T/C [13]: 66.2%
- viability, T/C [14]: 92.2%
- viability, T/C [15]: 51.3%
- viability, T/C [16]: 24.8%
- viability, T/C [17]: 18%
- viability, T/C [18]: 13.3%
- viability, T/C [19]: 77.7%
- viability, T/C [20]: 74.5%
- viability, T/C [21]: 37%
- viability, T/C [22]: 25.3%
- viability, T/C [23]: 18.9%
- viability, T/C [24]: 12.5%
- viability, T/C [25]: 90.6%
- viability, T/C [26]: 64.5%
- viability, T/C [27]: 40.2%
- viability, T/C [28]: 23.9%
- viability, T/C [29]: 20.6%
- viability, T/C [30]: 12.3%
- viability, T/C [31]: 70.3%
- viability, T/C [32]: 56.8%
- viability, T/C [33]: 39.6%
- viability, T/C [34]: 23.2%
- viability, T/C [35]: 17.2%
- viability, T/C [36]: 9.31%
